From patent US7923434B2, “Phosphole derivatives complexed with metals, and pharmaceutical uses thereof” (Centre National de la Recherche Scientifique, priority 2004, dated 2011)
Where a chain is given by its changes, count along the chain named.

Columns and labels:
DNA = experiment: Thermal DNA denaturation test; assay type: binding; conditions: tested between 0 and 20 μM
Description: In addition to its major activity on human disulphide reductases, glutathione reductase and thioredoxin reductase, the binding of complex (1) to DNA was measured in thermal DNA denaturation tests.

hTrxRSec→Cys [1] = target: T1, hTrxRSec→Cys (Homo sapiens, UniProt Q16881); experiment: Test for reduction of DTNB by TrxR, mutant hTrxR-Mut; assay type: biochemical; conditions: 3 mM DTNB; 10 min pre-incubation with 200 μM NADPH; enzyme 90.6 nM
T1 sequence (Q16881 with tags, fused parts or gaps isoform Q16881-5 limits assumed): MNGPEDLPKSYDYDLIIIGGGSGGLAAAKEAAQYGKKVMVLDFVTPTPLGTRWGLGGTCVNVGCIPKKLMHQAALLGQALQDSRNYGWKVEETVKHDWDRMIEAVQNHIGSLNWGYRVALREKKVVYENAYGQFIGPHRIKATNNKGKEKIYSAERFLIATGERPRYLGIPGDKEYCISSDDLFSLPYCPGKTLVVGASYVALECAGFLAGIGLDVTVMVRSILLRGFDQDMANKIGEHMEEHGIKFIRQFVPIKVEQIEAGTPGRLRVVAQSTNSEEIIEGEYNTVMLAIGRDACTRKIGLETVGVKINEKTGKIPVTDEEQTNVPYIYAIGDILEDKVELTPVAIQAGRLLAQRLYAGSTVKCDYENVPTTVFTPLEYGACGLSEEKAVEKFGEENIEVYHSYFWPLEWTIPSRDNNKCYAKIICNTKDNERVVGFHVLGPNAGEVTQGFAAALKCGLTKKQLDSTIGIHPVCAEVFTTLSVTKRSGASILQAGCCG
Excerpt: (§1) The phosphole derivatives containing gold and platinum have been identified as powerful inhibitors of human GR and TrxR (see Table 1). With either the substrate TrxC72S, or DTNB, very low IC50 values at nanomolar level—quasi-stoichiometric reaction—were obtained with wild-type human TrxR. By contrast, the IC50 values with the Sec→Cys mutant were at least 1000 times higher, proving that the selenocysteine residue is the inhibition target of human TrxR. […] A reduction of these enzymes is necessary to complete the inhibition, which proves that the active site comprising the Cys/Cys residues in the GR or Cys/Sec in the TrxR is the inactivation site. The pre-reduction of these enzymes accelerates the inhibition. The reaction between the inhibitor and these enzymes is very rapid and not precisely measurable with standard enzymology techniques. […] This competition would probably not contribute to the irreversible enzymatic inactivation.

WT hTrxR [2] = target: T2, WT hTrxR (Homo sapiens, UniProt Q16881); experiment: Test for reduction of Trx (hTrxC72S) by TrxR, wild type; assay type: biochemical; conditions: 20 μM hTrxC72S; 10 min pre-incubation with 100 μM NADPH; enzyme 24 nM
T2 sequence (Q16881 151-649 limits assumed): T1 sequence (Q16881 with tags, fused parts or gaps isoform Q16881-5 limits assumed) with C498U
Excerpt: as §1

human GR [3] = target: T3, human GR (Homo sapiens, UniProt P00390); experiment: Binding of (1) to human GR: titration and initial-speed kinetics
T3 sequence (P00390 45-522 limits assumed): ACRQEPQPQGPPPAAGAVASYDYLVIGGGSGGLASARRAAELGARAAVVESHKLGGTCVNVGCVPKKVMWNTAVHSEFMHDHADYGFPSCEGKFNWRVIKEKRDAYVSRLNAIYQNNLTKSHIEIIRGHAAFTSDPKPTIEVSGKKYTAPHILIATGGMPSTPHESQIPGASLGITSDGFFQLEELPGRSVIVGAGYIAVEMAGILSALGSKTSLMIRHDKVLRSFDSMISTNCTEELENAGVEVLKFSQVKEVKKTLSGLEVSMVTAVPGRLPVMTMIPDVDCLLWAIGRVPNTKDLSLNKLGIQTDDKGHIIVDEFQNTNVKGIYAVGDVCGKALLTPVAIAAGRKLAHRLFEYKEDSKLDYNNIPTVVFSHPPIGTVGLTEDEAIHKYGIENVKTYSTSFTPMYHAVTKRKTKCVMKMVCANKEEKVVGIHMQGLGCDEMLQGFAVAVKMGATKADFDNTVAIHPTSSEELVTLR
Description: The stoichiometry of binding of (1) to human GR was determined by titration. Based on these experiments, (1) binds very tightly to the binding site of the GSSG of each human GR sub-unit. […] Although numerous hydrophobic inhibitors of the human GR and of the GR of Plasmodium falciparum are bound in the cavity between the two sub-units of the dimer with a stoichiometry of 0.5 per sub-unit, this is not the case for the inhibitor (1). The stoichiometry of 1.25 equivalents of (1) per FAD or per sub-unit of human GR can be explained by the presence of a second molecule of (1) bound less tightly to another position in the human GR, confirming the 3D structure of the complex GR-(1). […] The inactivation mechanism of human GR therefore involves an S—Au(I)—S coordination and the loss of the phosphole ligand; • the second site for the metallo-phosphole (1) is the Cys284 exposed to the solvent, at 23 Å of the active site and located in a hydrophobic cavity. In this case, the sulphur atom of the Cys284 remains bound to the Au-phosphole entity. […]

hTrxRSec→Cys [4] = target: T1, hTrxRSec→Cys; experiment: Test for reduction of Trx (hTrxC72S) by TrxR, mutant hTrxR-Mut; assay type: biochemical; conditions: 20 μM hTrxC72S; 10 min pre-incubation with 100 μM NADPH; enzyme 1.8 μM
Excerpt: as §1

human GR [5] = target: T3, human GR; experiment: Test for reduction of GSSG by GR; assay type: biochemical; conditions: 100 μM GSSG; 10 min pre-incubation with 100 μM NADPH
Excerpt: as §1

[6] = Tolerability in C6 glioma-bearing rats; assay type: in vivo, rat
Description: After confirmation of the tumour growth by MRI on day 9, the rats carrying tumours were treated by intravenous injection with the compound (1) at a concentration of 25 mg/kg (n=4). The tumour growth was compared to that of the non-treated control animals (n=4). The treatment commenced on day 9 and continued on days 11 and 13. On day 15 after the implantation of the tumour cells, all the rats were sacrificed by decapitation. Under these conditions, a 44% reduction of the tumour growth was observed between days 9 and 15 at a dose of compound (1) of 25 mg/kg of body weight compared with that of the control group (FIG. 1).

WT hTrxR [7] = target: T2, WT hTrxR; experiment: Test for reduction of DTNB by TrxR, wild type; assay type: biochemical; conditions: 3 mM DTNB; 10 min pre-incubation with 200 μM NADPH; enzyme 4.8 nM
Excerpt: as §1

[8] = system: NCH89 human glioblastoma cell line; experiment: BrdU in vitro proliferation test, NCH89; assay type: cell-based; conditions: BrdU incorporation
Description: (§2) Briefly, the tumour cells are cultured and duplicated in 96-well plates in RPMI 1640 medium containing 10% foetal calf serum and antibiotics (cell density: 7×10^3 cells). […] After 48 hours, the reagent 5-bromo-2′-deoxyuridine (BrdU) was added at the final concentration of 10 μM for an incubation period of 19 hours. […] Compound (7) (Au-triphenylphosphine chloride complex, (PPh3)AuCl) and nitrosourea 1,3-bis(2-chloroethyl)-1-nitrosourea (BCNU, carmustine) are positive controls already reported in the literature.

[9] = system: NCH82 human glioblastoma cell line; experiment: BrdU in vitro proliferation test, NCH82; assay type: cell-based; conditions: BrdU incorporation
Description: as §2

[10] = system: NCH37 human glioblastoma cell line; experiment: BrdU in vitro proliferation test, NCH37; assay type: cell-based; conditions: BrdU incorporation
Description: as §2

Row | SMILES | IC50 (hTrxRSec→Cys [1]) [µM] | IC50 (WT hTrxR [2]) [µM] | IC50 (hTrxRSec→Cys [4]) [µM] | IC50 (human GR [5]) [µM] | IC50 (WT hTrxR [7]) [µM] | IC50 [8] [µM] | further results
1 | [Cl][Au][PH]1(c2ccccc2)C(c2ccccn2)=C2CCCCC2=C1c1ccccn1 [Compound 1] | 2.5 | 0.007 | 0.8 | 0.001 | 0.0008 | – | binding to DNA: concentration from which active (DNA): 1 µM; Kd (human GR [3]; kinetics at initial speed with 0.5-2.0 μM GSSG, read-out: disassociation constant Kd=Ki): 0.46 µM; stoichiometry of binding (human GR [3]; titration, differences in extinction coefficient at selected wavelengths): 1.25 equivalents of (1) per FAD or per sub-unit of human GR; tolerability of the therapy ([6]; 25 mg/kg): well tolerated; death from treatment ([6]; 25 mg/kg i.v., C6 glioma rats): no animal died; total body weight, treated vs control ([6]; 25 mg/kg i.v., C6 glioma rats): no significant difference
2 | [Cl][Au][PH]1(c2ccccc2)C(c2ccccn2)=C2CCCCC2=C1c1cccs1 [Compound 2] | 2.5 | 0.007 | 1.4 | 0.002 | 0.001 | – | –
3 | c1ccc(-p2c(-c3ccccn3)c3c(c2-c2cccs2)CCCC3)cc1 (centres unmarked) [Compound 6] | – | – | – | – | – | 8.5 ± 0.5 | –
4 | [Cl][Pt-2]1([Cl])[n+]2ccccc2C2=C3CCCCC3=C(c3cccs3)[P+]21c1ccccc1 (centres unmarked) [Compound 4] | 24 | 0.008 | 2.3 | 0.4 | 0.001 | – | –
5 | c1ccc(-p2c(-c3ccccn3)c3c(c2-c2ccccn2)CCCC3)cc1 [Compound 5] | – | – | – | – | – | 6.7 ± 0.3 | –
6 | O=NN(CCCl)C(=O)NCCCl [carmustine, 1,3-bis(2-chloroethyl)-1-nitrosourea] | – | – | – | – | – | 615 ± 38 | IC50 [9]: 385 ± 25 µM; IC50 [10]: 300 ± 12 µM
